Experimental data from patent US4268664A, “Process for the preparation of 1-N-isoseryl- or 1-N-(L-4-amino-2-hydroxybutyryl)-3',4'-dideoxykanamycin B and intermediates thereof” (Zaidan Hojin Biseibutsu Kagaku Kenkyu Kai, priority 1978, dated 1981).

What was measured:
[1] = system: various microorganisms; experiment: antimicrobial activity (in words); format: cell-based
Description: The minimum inhibitory concentrations (mcg/ml) of the compounds tested against various microorganisms were determined according to a serial dilution method using nutrient agar medium at 37° C., the estimation being effected after 20 hours-incubation.

[2] = system: drug-resistant microbial strains including Pseudomonas aeruginosa; details: cited from earlier work
[3] = system: kanamycin-resistant microbial strains including Pseudomonas aeruginosa; details: cited from earlier work

For `NCC1C=CC(N)C(OC2C(N)CC(NC(=O)C(O)CN)C(OC3OC(CO)C(O)C(N)C3O)C2O)O1` (stereo not drawn) [1-N-isoseryl-3',4'-dideoxy-3',4'-didehydrokanamycin B], the antimicrobial activity [1] was “high antimicrobial activity”.
In the case of `NCC1CCC(N)C(OC2C(N)CC(NC(=O)C(O)CN)C(OC3OC(CO)C(O)C(N)C3O)C2O)O1` (stereo not drawn) [1-N-isoseryl-3',4'-dideoxykanamycin B], the “activity against a wide variety of drug-resistant microbial strains” value [2] is given as “high activity”.
In the case of `NCC1CCC(N)C(OC2C(N)CC(N)C(OC3OC(CO)C(O)C(N)C3O)C2O)O1` (stereo not drawn) [3',4'-Dideoxykanamycin B], the “activity against kanamycin-resistant microbial strains” value [3] is given as “high activity”.
